The values that follow come from patent publication US9061026B2, “Oligomer-diarylpiperazine conjugates” (priority 2008, dated 2015).

Read-outs that look alike come from different tables or passages of the source.

For one assay, the target named is Opiate δ (Homo sapiens, UniProt P41143). Briefly: Opiate δ receptor binding (Table 1). The following applies: for Fold change: Opiate δ Ki relative to ±BW373U86 (=1); for Ki: Table 1.
Assay [1] has as its target Opiate Receptor, delta (OP1, DOP) (Homo sapiens, UniProt P41143). Description: Radioligand competition binding, Opiate Receptor, delta (OP1, DOP), [3H]-naltrindole, CHO cells. A general note: In a radioligand displacement assay an active substance lowers the binding of a labelled ligand.
Assay [2] deals with T1, Opiate Receptor, kappa (OP2, KOP) (Homo sapiens, UniProt P41145).
T1 construct: expressed in transfected cells; host or cells: HEK-293 cells, membrane preparation
T1 sequence (P41145 whole entry): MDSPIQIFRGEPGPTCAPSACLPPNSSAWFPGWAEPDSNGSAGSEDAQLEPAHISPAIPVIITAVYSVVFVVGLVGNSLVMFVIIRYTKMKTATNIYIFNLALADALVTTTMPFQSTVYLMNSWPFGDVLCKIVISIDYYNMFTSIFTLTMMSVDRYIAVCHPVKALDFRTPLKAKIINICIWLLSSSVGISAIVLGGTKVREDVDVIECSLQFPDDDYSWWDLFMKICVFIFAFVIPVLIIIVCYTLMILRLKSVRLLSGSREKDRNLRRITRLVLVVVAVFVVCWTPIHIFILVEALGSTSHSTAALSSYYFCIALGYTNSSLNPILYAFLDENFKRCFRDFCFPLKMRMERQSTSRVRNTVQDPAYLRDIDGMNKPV
Description: biochemical. Type of assay: binding.

Assay [3] concerns the target Opiate Receptor, μ (OP3, MOP) (Homo sapiens, UniProt P35372). Briefly: Radioligand competition binding, Opiate Receptor, μ (OP3, MOP), [3H]-diprenorphine, CHO-K1 cells.
A further assay deals with Delta Opioid Receptor. Briefly: Delta Opioid Receptor Binding, forebrain, representative data set. The settings on record: radioligand [3H]Enkephalin, DPDPE, read-out: Kd (binding affinity). The procedure: Binding characteristics for various receptors including, but not limited to, delta, kappa, and mu opioid receptors are determined.

Sequence of Opiate δ (P41143 whole entry): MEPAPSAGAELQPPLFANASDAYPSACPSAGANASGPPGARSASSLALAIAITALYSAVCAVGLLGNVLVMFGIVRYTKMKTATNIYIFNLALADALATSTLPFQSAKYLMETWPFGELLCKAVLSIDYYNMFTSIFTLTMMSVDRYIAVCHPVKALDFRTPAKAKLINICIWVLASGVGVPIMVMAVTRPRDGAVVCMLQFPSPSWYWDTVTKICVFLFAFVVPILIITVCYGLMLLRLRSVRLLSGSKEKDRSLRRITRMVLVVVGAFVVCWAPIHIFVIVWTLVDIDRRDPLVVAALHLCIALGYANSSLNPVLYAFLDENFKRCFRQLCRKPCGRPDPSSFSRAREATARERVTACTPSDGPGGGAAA
Sequence of Opiate Receptor, delta (OP1, DOP) (P41143 whole entry): as above
Sequence of Opiate Receptor, μ (OP3, MOP) (P35372 whole entry): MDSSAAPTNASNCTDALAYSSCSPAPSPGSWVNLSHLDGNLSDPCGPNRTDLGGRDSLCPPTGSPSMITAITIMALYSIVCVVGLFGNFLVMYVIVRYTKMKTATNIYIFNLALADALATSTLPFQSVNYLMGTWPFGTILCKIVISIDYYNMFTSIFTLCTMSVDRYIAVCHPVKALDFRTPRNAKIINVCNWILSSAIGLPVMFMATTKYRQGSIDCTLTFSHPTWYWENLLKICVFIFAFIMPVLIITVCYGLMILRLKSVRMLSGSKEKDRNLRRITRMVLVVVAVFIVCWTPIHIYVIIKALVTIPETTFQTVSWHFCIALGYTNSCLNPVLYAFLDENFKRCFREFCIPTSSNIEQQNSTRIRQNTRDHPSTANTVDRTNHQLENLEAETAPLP

Take `C=CCN1C[C@H](C)N([C@H](c2ccc(C(=O)N(CC)CC)cc2)c2cccc(OCCOCCOCCOCCOCCOCCOCCOC)c2)C[C@H]1C` (racemic) [mPEG-7 ± BW373U86, (±)-4-[(αR)-α-((2S,5R)-4-Allyl-2,5-dimethyl-1-piperazinyl)-3-O-methoxy(heptaethylene glycol)benzyl]-N,N-diethylbenzamid]: at Opiate δ, the Fold change is reported as about 298. Further, the inhibition constant (Ki) – broadly, a measure of affinity in units of concentration, obtained from inhibition or displacement – at Opiate δ (read-out: Opiate δ, Ki) was about 1330 nM.
The corresponding values for `C=CCN1C[C@H](C)N([C@H](c2ccc(C(=O)N(CC)CC)cc2)c2cccc(OCCOCCOCCOCCOCCOCCOCCOC)c2)C[C@H]1C` [mPEG-7 + BW373U86, (+)-4-[(αR)-α-((2S,5R)-4-Allyl-2,5-dimethyl-1-piperazinyl)-3-O-methoxy(heptaethylene glycol)benzyl]-N,N-diethylbenzamid] are 242.7 and 864 nM.
As to `C=CCN1C[C@H](C)N([C@H](c2ccc(C(=O)N(CC)CC)cc2)c2cccc(OCCOCCOCCOC)c2)C[C@H]1C` (racemic) [mPEG-3 ± BW373U86, (±)-4-[(αR)-α-((2S,5R)-4-Allyl-2,5-dimethyl-1-piperazinyl)-3-O-methoxy(triethylene glycol)benzyl]-N,N-diethylbenzamid], the Ki on Opiate δ (read-out: Opiate δ, Ki) is about 415 nM.
On to `C=CCN1C[C@H](C)N([C@H](c2ccc(C(=O)N(CC)CC)cc2)c2cccc(O)c2)C[C@H]1C` [(+) BW373U86, (+)-4-[(αR)-α-((2S,5R)-4-Allyl-2,5-dimethyl-1-piperazinyl)-3-hydroxbenzyl]-N,N-diethylbenzamide, reference compound], for which the half-inhibitory concentration (IC50) (usually the point on the concentration scale where inhibition reaches its midpoint) in assay [1] was found to be 1 nM; in assay [2], 223 nM; in assay [3], 309 nM. For the same molecule, the Ki was determined as 0.354 nM in assay [1], 89.2 nM in assay [2] and 126 nM in assay [3]. The nH came out at 0.91 in assay [1], 0.78 in assay [2] and 0.83 in assay [3].
As to `C=CCN1C[C@H](C)N([C@H](c2ccc(C(=O)N(CC)CC)cc2)c2cccc(OCCOCCOCCOC)c2)C[C@H]1C` [mPEG-3 + BW373U86, (+)-4-[(αR)-α-((2S,5R)-4-Allyl-2,5-dimethyl-1-piperazinyl)-3-O-methoxy(triethylene glycol)benzyl]-N,N-diethylbenzamid], the inhibition constant (Ki) on Opiate δ (read-out: Opiate δ, Ki) amounted to 491 nM; in assay [1] (read-out: Ki) it was 255 nM. Besides, the concentration for half-maximal inhibition (IC50) in assay [1] (read-out: IC50) is 723 nM.
As to `CCN(CC)C(=O)c1ccc([C@H](c2cccc(O)c2)N2C[C@@H](C)N(CCOCCOCCOC)C[C@@H]2C)cc1` (racemic) [mPEG3-N-(+/−)-BW373U86, (±)-4-[(αR)-α-((2S,5R)-4-methoxy(triethylene glycol)-2,5-dimethyl-1-piperazinyl)-3-hydroxybenzyl]-N,N-diethylbenzamide], the figures for the IC50 in assay [1] (read-out: IC50) and in assay [3] (read-out: IC50) were 764 nM and 9370 nM, respectively. The inhibitory constant (Ki) was determined as 269 nM in assay [1] (read-out: Ki) and 3810 nM in assay [3] (read-out: Ki).
As to `C=CCN1CCN(C(c2ccc(C(=O)N(CC)CC)cc2)c2cccc(O)c2)CC1` (centres unmarked) [demethyl-BW373U86, 4-[(4-Allyl-1-piperazinyl)-3-hydroxbenzyl]-N,N-diethylbenzamid], the nH is reported as 1.10 in assay [1], 0.87 in assay [2] and 1.02 in assay [3]. The half-maximal inhibitory concentration (IC50) came out at 7.09 nM in assay [1] (read-out: IC50), 1000 nM in assay [2] (read-out: IC50) and 11000 nM in assay [3] (read-out: IC50). The Ki in assay [1] (read-out: Ki) worked out at 2.5 nM; in assay [2] (read-out: Ki), 401 nM; in assay [3] (read-out: Ki), 4450 nM.
Take DPDPE [[3H]Enkephalin, DPDPE]: at Delta Opioid Receptor, the Kd (usually a measure of binding affinity in units of concentration) worked out at 2.1 nM.
For the molecule `Br.Br.C=CCN1CC(C)N(C(c2ccc(C(=O)N(CC)CC)cc2)c2cccc(O)c2)CC1C` (racemic) [(+/−) BW373U86 dihydrobromide, reference compound], the figures for the concentration for half-maximal inhibition (IC50) in assay [1] (read-out: IC50), in assay [2] (read-out: IC50) and in assay [3] (read-out: IC50) were 3.26 nM, 556 nM and 659 nM, respectively. The inhibition constant Ki in assay [1] (read-out: Ki) was 1.15 nM; in assay [2] (read-out: Ki) it was 223 nM; in assay [3] (read-out: Ki) it was 268 nM. In addition, the nH in assay [2] and in assay [3] was 0.92 each time.
Take `CCN(CC)C(=O)c1ccc(C(c2cccc(OCCOCCOCCOC)c2)N2CCN(Cc3ccccc3)CC2)cc1` (centres unmarked) [mPEG3-N-benzyl-deallyl-demethyl-BW373U86, 4-[(4-Benzyl-1-piperazinyl)-3-O-methoxy(triethyleneglycol)benzyl]-N,N-diethylbenzamide]: in assay [1], the concentration for half-maximal inhibition (IC50) was found to be 212 nM, the Ki was found to be 74.7 nM and the nH is given as 1.50.
Consider `CCN(CC)C(=O)c1ccc(C(c2cccc(OCCOCCOCCOCCOCCOCCOCCOC)c2)N2CCN(Cc3ccccc3)CC2)cc1` (centres unmarked) [mPEG7-N-benzyl-deallyl-demethyl-BW373U86, 4-[(4-Benzyl-1-piperazinyl)-3-O-methoxy(heptaethyleneglycol)benzyl]-N,N-diethylbenzamid], for which, in assay [1], the half-maximal inhibitory concentration (IC50) came out at 106 nM, the inhibition constant Ki worked out at 37.4 nM and the nH amounted to 1.08.
On to `CCN(CC)C(=O)c1ccc(C(c2cccc(O)c2)N2CCN(Cc3ccccc3)CC2)cc1` (centres unmarked) [N-benzyl-deallyl-demethyl-BW373U86, 4-[(4-Benzyl-1-piperazinyl)-3-hydroxbenzyl]-N,N-diethylbenzamid], for which, in assay [1], the half-inhibitory concentration (IC50) worked out at 1.33 nM, the Ki came out at 0.47 nM and the nH is 0.99. In assay [2], this molecule gave an IC50 of 2370 nM, an inhibitory constant (Ki) of 946 nM and a nH of 0.95. In assay [3], the half-inhibitory concentration (IC50) was found to be 2750 nM, affinity was put at a Ki of 1110 nM and the nH is reported as 0.90.
`C=CCN1CCN(C(c2ccc(C(=O)N(CC)CC)cc2)c2cccc(OCCOCCOCCOCCOCCOCCOCCOC)c2)CC1` (centres unmarked) [mPEG7-demethyl-BW373U86, 4-[(4-Allyl-1-piperazinyl)-3-O-methoxy(heptaethylene glycol)benzyl]-N,N-diethylbenzamide]: the IC50 in assay [1] (read-out: IC50) is 3470 nM. Moreover, the Ki in assay [1] (read-out: Ki) was 1220 nM.
Regarding `C=CCN1C[C@H](C)N([C@H](c2ccc(C(=O)N(CC)CC)cc2)c2cccc(O)c2)C[C@H]1C` (racemic) [±BW373U86, (±)-4-[(αR)-α-((2S,5R)-4-Allyl-2,5-dimethyl-1-piperazinyl)-3-hydroxbenzyl]-N,N-diethylbenzamide, reference compound], the inhibition constant Ki on Opiate δ (Opiate δ, Ki (nM)) amounted to 0.36 nM.
For `C=CCN1CCN(C(c2ccc(C(=O)N(CC)CC)cc2)c2cccc(OCCOCCOCCOC)c2)CC1` (centres unmarked) [mPEG3-demethyl-BW373U86, 4-[(4-Allyl-1-piperazinyl)-3-O-methoxy(triethyleneglycol)benzy]-N,N-diethylbenzamid], in assay [1] (read-out: IC50), the half-maximal inhibitory concentration (IC50) was 6050 nM. Further, in assay [1] (read-out: Ki), the inhibition constant Ki came to 2130 nM.
